Data published in article PMC8998618, “A Pharmacokinetic and Metabolism Study of the TRPC6 Inhibitor SH045 in Mice by LC-MS/MS” (International Journal of Molecular Sciences, 2022).

Key:
[1] = NADPH-dependent microsomal conversion, Michaelis-Menten kinetics (MLM); format: in vitro ADME, mouse; details: MLM 0.5 mg/mL protein, SH045 0.5 to 100 µM, Lineweaver-Burk
Method: (§1) For determination of vmax and Michaelis-Menten constant Km of the NADPH-dependent microsomal depletion of SH045, incubations in MLM and HLM were performed. Testosterone instead of SH045 was used as positive control (Supplementary Materials SM6).
(§2) Negative controls were obtained by omission of respective components. The overall velocity (v) of degradation was calculated from altered SH045 concentration (∆c) obtained from reduction peak area ratio of SH045 as: v = ∆c/incubation time × concentration of enzyme (nmol/min × mg). Mean maximum rate vmax and Km were calculated using Lineweaver-Burk transformation. […]
(§3) The tissue binding of SH045 was analyzed exemplarily in lung, liver and kidney homogenate using ultrafiltration [5]. […] 20 µL of the mixture and the filtrate were analyzed for SH045. […]
(§4) Testosterone (10 µM in ACN/DPBS 2/3, v/v) instead of SH045 was used as positive control and analyzed by an appropriate HPLC method with UV detection.
(§5) Negative controls contained either no NADPH, no MLM or HLM or none of them. The overall velocity (v) of degradation was calculated from altered SH045 concentration (∆c) obtained from reduction peak area ratio of SH045 as: v = ∆c / incubation time × concentration of enzyme × volume (nmol/ min × mg). Mean maximum rate vmax and Michaelis-Menten constant Km were calculated using Lineweaver-Burk transformation. […]

[2] = NADPH-dependent microsomal conversion, Michaelis-Menten kinetics (HLM); format: in vitro ADME, human; details: HLM 0.5 mg/mL protein, SH045 0.5 to 100 µM, Lineweaver-Burk
Method: as §1, §2, §3, §4, §5

TRPC6 = tested on: TRPC6; set-up: method as in PMID 29522264; details: in vitro; cited from earlier work
[3] = tissue homogenate binding by ultrafiltration; format: in vitro ADME, mice; details: mean ± RSD

Question: Which vmax [1] does the source give for `C=C[C@@](C)(O)CC[C@H]1C(=C)C[C@H](OC(=O)NC)[C@H]2C(C)(C)CCC[C@]12C` [SH045, (1S,4S,4aR,8aS)-4-((S)-3-Hydroxy-3-methylpent-4-en-1-yl)-4a,8,8-trimethyl-3-methylenedecahydronaphthalen-1-yl methylcarbamate] here?
Answer: 9.8 ± 0.8 nmol/min/mg

Question: What about the Km at 10 min ([1]; mouse, mouse liver microsomes) of the same compound?
Answer: 48.4 ± 3.9 µM

Question: And the vmax [2]?
Answer: 0.8 ± 0.1 nmol/min/mg

Question: And the Km at 10 min ([2]; human, human liver microsomes)?
Answer: 4.1 ± 0.8 µM

Question: And the IC50 (TRPC6)?
Answer: 5.8 nM

Question: And the Tissue binding ([3]; kidney homogenate 1:10, SH045 1 µg/mL, 30 min)?
Answer: 97.6 ± 0.9%

Question: What about the Tissue binding ([3]; kidney homogenate 1:10, SH045 1 µg/mL, 60 min) of the same compound?
Answer: 97.8 ± 0.4%

Question: And the Tissue binding ([3]; kidney homogenate 1:10, SH045 1 µg/mL, 120 min)?
Answer: 98.3 ± 0.2%

Question: And the Tissue binding ([3]; kidney homogenate 1:10, SH045 1 µg/mL, 240 min)?
Answer: 98.3 ± 0.1%

Question: What about the Tissue binding ([3]; liver homogenate 1:10, SH045 2 µg/mL, 30 min) of the same compound?
Answer: 99.4 ± 0.1%

Question: And the Tissue binding ([3]; liver homogenate 1:10, SH045 2 µg/mL, 60 min)?
Answer: 97.1 ± 1.0%

Question: And the Tissue binding ([3]; liver homogenate 1:10, SH045 2 µg/mL, 120 min)?
Answer: 99.0 ± 0.1%

Question: And the Tissue binding ([3]; liver homogenate 1:10, SH045 2 µg/mL, 240 min)?
Answer: 97.8 ± 0.9%

Question: And the Tissue binding ([3]; lung homogenate 1:10, SH045 50 µg/mL, 30 min)?
Answer: 93.5 ± 1.2%

Question: What about the Tissue binding ([3]; lung homogenate 1:10, SH045 50 µg/mL, 60 min) of the same compound?
Answer: 94.9 ± 0.1%

Question: What about the Tissue binding ([3]; lung homogenate 1:10, SH045 50 µg/mL, 120 min) of the same compound?
Answer: 97.8 ± 0.5%

Question: What about the Tissue binding ([3]; lung homogenate 1:10, SH045 50 µg/mL, 240 min) of the same compound?
Answer: 97.4 ± 0.8%
